Measurements published in patent US20030186943A1, “Substituted gamma-phenyl-delta-lactams and uses related thereto” (Inflazyme Pharmaceuticals Ltd., priority 1998, published 2003).

Columns and labels:
Th1 cells = assay: Proliferation of differentiated Th1 CD4+ T cells; type: cell-based, mouse; details: CD4+ T cells already differentiated into Th1 phenotype
Protocol: The differentiation of naive CD4 T cells toward Th1 and Th2 lineages was performed as follows: 1×10^5 AND-lymph node T cells were cultured with […] B10.BR irradiated spleen cells in 2 ml of culture media with the following supplements: for Th1 cell differentiation, 100 U/mL IFNγ, 25U/mL IL2 and 10 ug/mL anti-IL4; for Th2 cell differentiation, 150 U/mL IL4, 25 U/mL IL2 and 10 ug/mL anti-IFNγ. After 3-4 days the wells were split 1:4 with the same additions. After 7 days the cells were harvested and washed 3 times to remove cytokines in the supernatents. 1×10^5 cultured cells were restimulated with 5×10^5 irradiated B10BR spleen cells +5 μM pcc peptide in 250 μl culture media without any added cytokines. The supernatents were harvested after 40 hrs and assessed for IL2, IL4 and IFNγ by ELISA. Test compounds were added throughout the differentiation of the culture.
Cultured Th1 and Th2 cells generated in the absence of test compounds were tested for proliferation and cytokine activity as described above during antigen stimulation in the presence of compound.

[1] = test system: T1, High Affinity Rolipram Binding Site of PDE4 in Mouse Brain; assay: Displacement of [3H]-rolipram from its high affinity binding site (HARBS)
T1 construct: other: mouse brain membranes, [3H]-Rolipram; X marks this range; other: mouse brain membranes, [3H]; Suspension was centrifuged twice at 30,000×G at 4° C. and the supernatant discarded

Q: Which “inhibition of Th1 cells” value (Th1 cells) does the source give for COc1cc(CC2C[C@@H](c3ccc(OC)c(OC4CCCC4)c3)COC2=O)ccc1O (stereo partly drawn) [Compound 43] here?
A: The value was “approx. 30%”.

Q: And the “times less potent than rolipram for interaction with the HARBS conformer of PDE4” value [1]?
A: The value was “approximately 28 fold”.

Q: What about the IC50 ([1]; read-out: IC50 for displacement of 3H-rolipram from high-affinity binding site (HARBS activity), mouse brain) of the same compound?
A: The IC50 was 250 nM.
